Legend:
Conditions in all cases: exposure window: 6 hpf to 120 hpf, static, assay age: 120 hpf (5 dpf)
[1] = tested on: Danio rerio larvae (Tropical 5D); assay: mean angular velocity of exposed larvae, dark phase (angular velocity (unit not stated)); higher = more movement
Procedure, shortened: (§1)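 Each value gives the mean movement per phase of the second light/dark cycle, and control means from the same plate are listed alongside. Tropical 5D wild-type zebrafish embryos were placed singly in the wells of 96-well plates, at least 7 per concentration, and exposed statically to nominal chemical concentrations such as 0.01 and 74.8 uM from 6 to 120 hpf. Any larva with a morphological abnormality was excluded. At 120 hpf, movement was recorded in a Zebrabox over 6 min of dark followed by three cycles of 3 min light and 3 min dark, and tracked using Ethovision XT v.11.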

[2] = tested on: Danio rerio larvae (Tropical 5D); assay: mean angular velocity of exposed larvae, light phase (angular velocity (unit not stated)); higher = more movement
Procedure, shortened: as §1

[3] = tested on: Danio rerio larvae (Tropical 5D); assay: mean distance moved of exposed larvae, light phase (µm per frame (1/25 s)); higher = more movement
Procedure, shortened: as §1

[4] = tested on: Danio rerio larvae (Tropical 5D); assay: mean distance moved of exposed larvae, dark phase (µm per frame (1/25 s)); higher = more movement
Procedure, shortened: as §1

O=S(=O)(O)C(F)(F)C(F)(F)C(F)(F)C(F)(F)C(F)(F)C(F)(F)F [Perfluorohexanesulfonic acid]
mean angular velocity of exposed larvae ([1]; 0.015 µM): 0.475
mean angular velocity of exposed larvae ([1]; 0.046 µM): 0.762
mean angular velocity of exposed larvae ([1]; 0.14 µM): 0.609
mean angular velocity of exposed larvae ([1]; 0.41 µM): 0.788
mean angular velocity of exposed larvae ([1]; 1.23 µM): 0.884
mean angular velocity of exposed larvae ([1]; 3.7 µM): 0.738
mean angular velocity of exposed larvae ([1]; 11.1 µM): 0.954
mean angular velocity of exposed larvae ([1]; 33.3 µM): 0.358
mean angular velocity of exposed larvae ([1]; 66.5 µM): 0.271
mean angular velocity of exposed larvae ([1]; 100 µM): 0.173
mean angular velocity of exposed larvae ([2]; 0.015 µM): 0.178
mean angular velocity of exposed larvae ([2]; 0.046 µM): 0.0902
mean angular velocity of exposed larvae ([2]; 0.14 µM): 0.121
mean angular velocity of exposed larvae ([2]; 0.41 µM): 0.123
mean angular velocity of exposed larvae ([2]; 1.23 µM): 0.25
mean angular velocity of exposed larvae ([2]; 3.7 µM): 0.171
mean angular velocity of exposed larvae ([2]; 11.1 µM): 0.153
mean angular velocity of exposed larvae ([2]; 33.3 µM): 0.351
mean angular velocity of exposed larvae ([2]; 66.5 µM): 0.241
mean angular velocity of exposed larvae ([2]; 100 µM): 0.114
mean distance moved of exposed larvae ([3]; 0.015 µM): 2.17
mean distance moved of exposed larvae ([3]; 0.046 µM): 2.46
mean distance moved of exposed larvae ([3]; 0.14 µM): 1.98
mean distance moved of exposed larvae ([3]; 0.41 µM): 2.2
mean distance moved of exposed larvae ([3]; 1.23 µM): 3.86
mean distance moved of exposed larvae ([3]; 3.7 µM): 3.31
mean distance moved of exposed larvae ([3]; 11.1 µM): 4.59
mean distance moved of exposed larvae ([3]; 33.3 µM): 8.09
mean distance moved of exposed larvae ([3]; 66.5 µM): 3.27
mean distance moved of exposed larvae ([3]; 100 µM): 3.18
mean distance moved of exposed larvae ([4]; 0.015 µM): 11.6
mean distance moved of exposed larvae ([4]; 0.046 µM): 20.4
mean distance moved of exposed larvae ([4]; 0.14 µM): 13.8
mean distance moved of exposed larvae ([4]; 0.41 µM): 17.2
mean distance moved of exposed larvae ([4]; 1.23 µM): 23
mean distance moved of exposed larvae ([4]; 3.7 µM): 22.9
mean distance moved of exposed larvae ([4]; 11.1 µM): 25.2
mean distance moved of exposed larvae ([4]; 33.3 µM): 8.39
mean distance moved of exposed larvae ([4]; 66.5 µM): 3.78
mean distance moved of exposed larvae ([4]; 100 µM): 3.15

O=P(O)(O)C(F)(F)C(F)(F)C(F)(F)C(F)(F)C(F)(F)C(F)(F)F [Perfluorohexylphosphonic acid]
mean angular velocity of exposed larvae ([1]; 0.25 µM): 0.788
mean angular velocity of exposed larvae ([2]; 0.25 µM): 0.148
mean distance moved of exposed larvae ([3]; 0.25 µM): 5.18
mean distance moved of exposed larvae ([4]; 0.25 µM): 24.1

O=P(O)(O)C(F)(F)C(F)(F)C(F)(F)C(F)(F)C(F)(F)C(F)(F)C(F)(F)C(F)(F)F [Perfluorooctylphosphonic acid]
mean angular velocity of exposed larvae ([1]; 0.25 µM): 0.959
mean angular velocity of exposed larvae ([2]; 0.25 µM): 0.308
mean distance moved of exposed larvae ([3]; 0.25 µM): 10.3
mean distance moved of exposed larvae ([4]; 0.25 µM): 29.9

O=S(=O)(O)C(F)(F)C(F)(F)C(F)(F)C(F)(F)F [Potassium perfluoro-1-butanesulfonate]
mean angular velocity of exposed larvae ([1]; 0.25 µM): 1.11
mean angular velocity of exposed larvae ([2]; 0.25 µM): 0.0624
mean distance moved of exposed larvae ([3]; 0.25 µM): 1.73
mean distance moved of exposed larvae ([4]; 0.25 µM): 30.9

O=S(=O)(O)CCC(F)(F)C(F)(F)C(F)(F)C(F)(F)F [Sodium 1H,1H,2H,2H-perfluorohexane sulfonate(4:2)]
mean angular velocity of exposed larvae ([1]; 0.25 µM): 1.24
mean angular velocity of exposed larvae ([2]; 0.25 µM): 0.152
mean distance moved of exposed larvae ([3]; 0.25 µM): 4.72
mean distance moved of exposed larvae ([4]; 0.25 µM): 44.7

O=S(=O)(O)C(F)(F)C(F)(F)C(F)(F)C(F)(F)C(F)(F)C(F)(F)C(F)(F)C(F)(F)Cl [Sodium 8-chloroperfluoro-1-octanesulfonate]
mean angular velocity of exposed larvae ([1]; 0.25 µM): 0.945
mean angular velocity of exposed larvae ([2]; 0.25 µM): 0.0987
mean distance moved of exposed larvae ([3]; 0.25 µM): 2.63
mean distance moved of exposed larvae ([4]; 0.25 µM): 28.8

O=S(=O)(O)C(F)(F)C(F)(F)C(F)(F)C(F)(F)C(F)(F)F [Sodium Perfluoro-1-pentanesulfonate]
mean angular velocity of exposed larvae ([1]; 0.25 µM): 1.28
mean angular velocity of exposed larvae ([2]; 0.25 µM): 0.235
mean distance moved of exposed larvae ([3]; 0.25 µM): 5.23
mean distance moved of exposed larvae ([4]; 0.25 µM): 34.7

O=P(O)(C(F)(F)C(F)(F)C(F)(F)C(F)(F)C(F)(F)C(F)(F)F)C(F)(F)C(F)(F)C(F)(F)C(F)(F)C(F)(F)C(F)(F)F [Sodium bis(perfluorohexyl)phosphinate]
mean angular velocity of exposed larvae ([1]; 0.25 µM): 0.687
mean angular velocity of exposed larvae ([2]; 0.25 µM): 0.163
mean distance moved of exposed larvae ([3]; 0.25 µM): 1.35
mean distance moved of exposed larvae ([4]; 0.25 µM): 14.2

O=P(O)(C(F)(F)C(F)(F)C(F)(F)C(F)(F)C(F)(F)C(F)(F)C(F)(F)C(F)(F)F)C(F)(F)C(F)(F)C(F)(F)C(F)(F)C(F)(F)C(F)(F)C(F)(F)C(F)(F)F [Sodium bis(perfluorooctyl)phosphinate]
mean angular velocity of exposed larvae ([1]; 0.25 µM): 0.704
mean angular velocity of exposed larvae ([2]; 0.25 µM): 0.119
mean distance moved of exposed larvae ([3]; 0.25 µM): 2.89
mean distance moved of exposed larvae ([4]; 0.25 µM): 15.1

O=S(=O)(O)C(F)(F)C(F)(F)C(F)(F)C(F)(F)C(F)(F)C(F)(F)C(F)(F)C(F)(F)C(F)(F)C(F)(F)F [Sodium perfluoro-1-decanesulfonate]
mean angular velocity of exposed larvae ([1]; 0.25 µM): 0.897
mean angular velocity of exposed larvae ([2]; 0.25 µM): 0.372
mean distance moved of exposed larvae ([3]; 0.25 µM): 6.8
mean distance moved of exposed larvae ([4]; 0.25 µM): 24.8

Reference: the supplement of paper PMC11414989
